Measured values taken from patent US12331040B2 (Karyopharm Therapeutics Inc., priority 2013, dated 2025).
Where two headings read alike, the source gives them in different places.

Key:
Assay in all cases: MTT cell proliferation assay
Assay type in all cases: cell-based
Z138 cells = details: Homo sapiens, Z-138, Z138 cells, approximately 64-72 hours incubation
Summary of the method: (§1)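 Cytotoxicity was measured by MTT: OD490 of the solubilized formazan after roughly 4 h with MTT reagent, reported as mean percent inhibition relative to the negative control. Test compounds covered eight concentrations between 1 nM and 30 μM, added to 5,000–10,000 cells per well that had attached overnight.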

3T3 cells = details: Mus musculus, NIH3T3, approximately 64-72 hours incubation
Summary of the method: as §1

MS751 cells = details: Homo sapiens, MS751, MS751 cells, approximately 64-72 hours incubation
Summary of the method: as §1

[1] = read-out: MTT Assay IC50 MS-751
[2] = read-out: MTT Assay IC50, Z-138
[3] = read-out: MTT Assay IC50, MS-751

Row | Structure (SMILES) | IC50 (Z138 cells; read-out: MTT Assay IC50 Z-138) | IC50 (3T3 cells; read-out: MTT Assay IC50 3T3) | IC50 (MS751 cells; [1]) | IC50 (Z138 cells; [2]) | IC50 (3T3 cells; read-out: MTT Assay IC50, 3T3) | IC50 (MS751 cells; [3])
1 | Nc1ccc(/C=C/C(=O)NCc2cc3cc(-c4ccc(C(=O)N5CC[C@@H](F)C5)cc4)cc(C(F)(F)F)c3o2)cn1 [Compound 522, (R,E)-3-(6-aminopyridin-3-yl)-N-((5-(4-(3-fluoropyrrolidine-1-carbonyl)phenyl)-7-(trifluoromethyl)benzofuran-2-yl)methyl)acrylamide] | 0.1 to 5 µM | > 10 µM | 0.1 to 5 µM | – | – | –
2 | Nc1ccc(/C=C/C(=O)NCc2cc3cc(-c4ccc(C(=S)N5CCC(F)(F)CC5)cc4)cc(-c4ccncc4)c3o2)cn1 [Compound 705, (E)-3-(6-aminopyridin-3-yl)-N-((5-(4-(4,4-difluoropiperidine-1-carbonothioyl)phenyl)-7-(pyridin-4-yl)benzofuran-2-yl)methyl)acrylamide] | – | – | – | < 0.1 µM | 0.1 to 5 µM | < 0.1 µM
3 | Nc1ccc(/C=C/C(=O)NCc2cc3cc(-c4ccc(C(=O)NC5(C(F)(F)F)CC5)cn4)cc(C(F)(F)F)c3o2)cn1 [Compound 619, (E)-6-(2-((3-(6-aminopyridin-3-yl)acrylamido)methyl)-7-(trifluoromethyl)benzofuran-5-yl)-N-(1-(trifluoromethyl)cyclopropyl)nicotinamide] | 0.1 to 5 µM | > 10 µM | 0.1 to 5 µM | – | – | –
4 | CC1(C)COCCN1C(=O)c1ccc(-c2cc(C(F)(F)F)c3oc(CNC(=O)/C=C/c4ccc(N)nc4)cc3c2)nc1 [Compound 569, (E)-3-(6-aminopyridin-3-yl)-N-((5-(5-(3,3-dimethylmorpholine-4-carbonyl)pyridin-2-yl)-7-(trifluoromethyl)benzofuran-2-yl)methyl)acrylamide] | < 0.1 µM | > 10 µM | < 0.1 µM | – | – | –
5 | Nc1ccc(/C=C/C(=O)NCc2cc3cc(-c4ccc(S(=O)(=O)N5CC(F)(F)C5)cc4)cc(Cl)c3o2)cn1 [Compound 642, (E)-3-(6-aminopyridin-3-yl)-N-((7-chloro-5-(4-(3,3-difluoroazetidin-1-ylsulfonyl)phenyl)benzofuran-2-yl)methyl)acrylamide] | 0.1 to 5 µM | > 10 µM | 0.1 to 5 µM | – | – | –
6 | O=C(/C=C/c1cccnc1)NCc1cc2cc(-c3ccc(C(=O)N4CCC(F)(F)CC4)cn3)cc(-c3cccnc3)c2o1 [Compound 673, (E)-N-((5-(5-(4,4-difluoropiperidine-1-carbonyl)pyridin-2-yl)-7-(pyridin-3-yl)benzofuran-2-yl)methyl)-3-(pyridin-3-yl)acrylamide] | – | – | – | < 0.1 µM | < 0.1 µM | < 0.1 µM
7 | Nc1ccc(/C=C/C(=O)NCc2cc3cc(-c4ccc(C(=O)N5CCC(F)(F)CC5)cc4)cc(-c4cccnc4)c3o2)cn1 [Compound 724, (E)-3-(6-aminopyridin-3-yl)-N-((5-(4-(4,4-difluoropiperidine-1-carbonyl)phenyl)-7-(pyridin-3-yl)benzofuran-2-yl)methyl)acrylamide] | – | – | – | < 0.1 µM | 0.1 to 5 µM | < 0.1 µM
8 | Nc1ccc(/C=C/C(=O)NCc2cc3cc(-c4ccc(C(=O)N5CCC(F)(F)CC5)cn4)c(F)c(F)c3o2)cn1 [Compound 681, (E)-3-(6-aminopyridin-3-yl)-N-((5-(5-(4,4-difluoropiperidine-1-carbonyl)pyridin-2-yl)-6,7-difluorobenzofuran-2-yl)methyl)acrylamide] | – | – | – | 5 to 10 µM | > 10 µM | > 10 µM
9 | Nc1ccc(/C=C/C(=O)NCc2cc3cc(-c4ccc(CC(=O)N5CCOCC5)cc4)cc(Cl)c3o2)cn1 [Compound 553, (E)-3-(6-Aminopyridin-3-yl)-N-((7-chloro-5-(4-(2-morpholino-2-oxoethyl)phenyl)benzofuran-2-yl)methyl)acrylamide] | 0.1 to 5 µM | > 10 µM | 0.1 to 5 µM | – | – | –
10 | O=C(/C=C/c1cccnc1)NCc1cc2cc(-c3ccc(C(=O)N4CCC(F)(F)CC4)cc3)cc(C(F)(F)F)c2o1 [Compound 682, (E)-N-((5-(4-(4,4-difluoropiperidine-1-carbonyl)phenyl)-7-(trifluoromethyl)benzofuran-2-yl)methyl)-3-(pyridin-3-yl)acrylamide] | – | – | – | 0.1 to 5 µM | 0.1 to 5 µM | 0.1 to 5 µM
11 | Nc1ccc(/C=C/C(=O)NCc2cc3cc(-c4ccc(C(=O)N5CCC(F)(F)CC5)cn4)cc(C(F)(F)F)c3o2)cc1F [Compound 676, (E)-3-(4-amino-3-fluorophenyl)-N-((5-(5-(4,4-difluoropiperidine-1-carbonyl)pyridin-2-yl)-7-(trifluoromethyl)benzofuran-2-yl)methyl)acrylamide] | – | – | – | > 10 µM | > 10 µM | > 10 µM
12 | O=C(/C=C/c1cccnc1)NCc1cc2cc(-c3ccc(C(=O)N4CCC(F)(F)CC4)cc3)cc(-c3cccnc3)c2o1 [Compound 725, (E)-N-((5-(4-(4,4-difluoropiperidine-1-carbonyl)phenyl)-7-(pyridin-3-yl)benzofuran-2-yl)methyl)-3-(pyridin-3-yl)acrylamide] | – | – | – | < 0.1 µM | < 0.1 µM | < 0.1 µM
13 | Nc1ccc(/C=C/C(=O)NCc2cc3cc(-c4ccc(C(=O)N5CCC(F)(F)CC5)cc4)cc(-c4cc(Cl)c(F)cc4F)c3o2)cn1 [Compound 698, (E)-3-(6-aminopyridin-3-yl)-N-((7-(5-chloro-2,4-difluorophenyl)-5-(4-(4,4-difluoropiperidine-1-carbonyl)phenyl)benzofuran-2-yl)methyl)acrylamide] | – | – | – | < 0.1 µM | 0.1 to 5 µM | < 0.1 µM
14 | Nc1ccc(/C=C/C(=O)NCc2cc3cc(-c4ccc(C(=O)N5CCC(F)(F)CC5)cc4)cc(-c4cc(F)ccc4F)c3o2)cn1 [Compound 740, (E)-3-(6-aminopyridin-3-yl)-N-((7-(2,5-difluorophenyl)-5-(4-(4,4-difluoropiperidine-1-carbonyl)phenyl)benzofuran-2-yl)methyl)acrylamide] | – | – | – | < 0.1 µM | 0.1 to 5 µM | < 0.1 µM
15 | Nc1ccc(/C=C/C(=O)NCc2cc3ccc(-c4ccc(C(=O)N5CCC(F)(F)CC5)cn4)cc3o2)cn1 [Compound 718, (E)-3-(6-Aminopyridin-3-yl)-N-((6-(5-(4,4-difluoropiperidine-1-carbonyl)pyridin-2-yl)benzofuran-2-yl)methyl)acrylamide] | – | – | – | 0.1 to 5 µM | > 10 µM | 0.1 to 5 µM
16 | Cc1ccncc1-c1cc(-c2ccc(C(=O)N3CCC(F)(F)CC3)cc2)cc2cc(CNC(=O)/C=C/c3ccc(N)nc3)oc12 [Compound 744, (E)-3-(6-aminopyridin-3-yl)-N-((5-(4-(4,4-difluoropiperidine-1-carbonyl)phenyl)-7-(4-methylpyridin-3-yl)benzofuran-2-yl)methyl)acrylamide] | – | – | – | < 0.1 µM | 0.1 to 5 µM | < 0.1 µM
17 | Nc1ccc(/C=C/C(=O)NCc2cc3cc(-c4cc(F)c(C(=O)N5CCOCC5)cc4F)cc(Cl)c3o2)cn1 [Compound 547, (E)-3-(6-aminopyridin-3-yl)-N-((7-chloro-5-(2,5-difluoro-4-(morpholine-4-carbonyl)phenyl)benzofuran-2-yl)methyl)acrylamide] | 0.1 to 5 µM | > 10 µM | 0.1 to 5 µM | – | – | –
18 | Nc1ccc(/C=C/C(=O)NCc2cc3c(C(F)(F)F)cc(-c4ccc(C(=O)N5CCC(F)(F)CC5)cn4)cc3o2)cn1 [Compound 762, (E)-3-(6-aminopyridin-3-yl)-N-((6-(5-(4,4-difluoropiperidine-1-carbonyl)pyridin-2-yl)-4-(trifluoromethyl)benzofuran-2-yl)methyl)acrylamide] | – | – | – | 0.1 to 5 µM | > 10 µM | 5 to 10 µM
19 | Nc1ccc(/C=C/C(=O)NCc2cc3cc(-c4ccc(F)c(C(=O)N5CCOCC5)n4)cc(Cl)c3o2)cn1 [Compound 581, (E)-3-(6-aminopyridin-3-yl)-N-((7-chloro-5-(5-fluoro-6-(morpholine-4-carbonyl)pyridin-2-yl)benzofuran-2-yl)methyl)acrylamide] | < 0.1 µM | > 10 µM | < 0.1 µM | – | – | –
20 | CC1(C)CN(C(=O)c2ccc(-c3cc(Cl)c4oc(CNC(=O)/C=C/c5ccc(N)nc5)cc4c3)cc2)C1 [Compound 529, (E)-3-(6-aminopyridin-3-yl)-N-((7-chloro-5-(4-(3,3-dimethylazetidine-1-carbonyl)phenyl)benzofuran-2-yl)methyl)acrylamide] | 0.1 to 5 µM | > 10 µM | 5 to 10 µM | – | – | –
21 | Nc1ccc(/C=C/C(=O)NCc2cc3cc(-c4ccc(C(=O)C(=O)N5CCOCC5)cc4)cc(Cl)c3o2)cn1 [Compound 545, (E)-3-(6-Aminopyridin-3-yl)-N-((7-chloro-5-(4-(2-morpholino-2-oxoacetyl)phenyl)benzofuran-2-yl)methyl)acrylamide] | 0.1 to 5 µM | 5 to 10 µM | 0.1 to 5 µM | – | – | –
22 | C[C@@H]1COCCN1C(=O)c1ccc(-c2cc(Cl)c3oc(CNC(=O)/C=C/c4ccc(N)nc4)cc3c2)cc1 [Compound 516, (R,E)-3-(6-aminopyridin-3-yl)-N-((7-chloro-5-(4-(3-methylmorpholine-4-carbonyl)phenyl)benzofuran-2-yl)methyl)acrylamide] | 0.1 to 5 µM | > 10 µM | 0.1 to 5 µM | – | – | –
23 | Nc1ccc(/C=C/C(=O)NCc2cc3cc(-c4ccc(F)c(C(=O)N5CCOCC5)n4)cc(C(F)(F)F)c3o2)cn1 [Compound 579, (E)-3-(6-aminopyridin-3-yl)-N-((5-(5-fluoro-6-(morpholine-4-carbonyl)pyridin-2-yl)-7-(trifluoromethyl)benzofuran-2-yl)methyl)acrylamide] | < 0.1 µM | > 10 µM | < 0.1 µM | – | – | –
